Reference: US20260167656A1, “PHOSPHORAMIDATE COMPOUNDS AND USES THEREOF” (ALLORION THERAPEUTICS INC, priority 2022, published 2026)

Tests used:
[1] = test system: non-small cell lung cancer cell line H460; assay: In vitro human cancer cell line cytotoxicity (proliferation) assay in H460, CellTiter-Glo, 72 hours; format: cell-based; settings: H460 cells, DMSO condition (no AKR1C3 inhibitor), read-out: CTG H460: Avg IC50 (nM) [Assay Condition: DMSO]
Procedure, shortened: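 H460 cells were seeded at 3×10^3 per well and grown 24 h at 37 °C, 5% CO2 before compound addition from 10 mM DMSO stocks. After 72 h further incubation, viability was measured by CellTiter-Glo, and IC50 values in nM were derived from the proliferation data.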

[2] = test system: non-small cell lung cancer cell line H460; assay: H460 proliferation assay in the presence of 3 uM ASP9521 (AKR1C3 specific inhibitor); format: cell-based, human; settings: H460 cells, CellTiter-Glo, 72 hours, in the presence of 3 uM ASP9521 added 4 hours prior to compounds; read-out: CTG H460: Avg IC50 (nM) [Assay Condition: ASP9521]
Procedure, shortened: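 H460 cells pre-incubated 24 h, then exposed to compounds for 72 h at 37 °C, 5% CO2. Viability read by CellTiter-Glo. ASP9521 (3 uM, AKR1C3 inhibitor) added 4 h before compounds.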

| SMILES | IC50 [1] | IC50 [2] | IC50 ([1]; Homo sapiens, NCI-H460, 72 h) |
| --- | --- | --- | --- |
| C[C@H](OP(=O)(N1CC1)N1CC1)c1cc2cc(Oc3cncc(-c4ccccc4)c3)c([N+](=O)[O-])cc2o1 [Example 568] | < 10 nM | 1920 nM |  |
| O=C(c1cccc(Oc2c([N+](=O)[O-])ccc3c2CCC3OP(=O)(N2CC2)N2CC2)c1)N1CCOCC1 (single isomer, unassigned) [Example 125] |  | 766 nM | < 10 nM |
| O=[N+]([O-])c1ccc2c(c1Oc1ccc(-c3ccc(Cl)cc3)cc1)CC[C@H]2OP(=O)(N1CC1)N1CC1 [Example 270] | 10 to 50 nM | 5550 nM |  |
| O=[N+]([O-])c1ccc2c(c1Oc1cccc(-n3ccc(C4CC4)n3)c1)CCC2OP(=O)(N1CC1)N1CC1 (centres unmarked) [Example 115] |  | 4730 nM | 10 to 50 nM |
| O=[N+]([O-])c1cc2oc(COP(=O)(N3CC3)N3CC3)cc2cc1Oc1cccc(OC(F)(F)F)c1 [Example 542] | < 10 nM | 963 nM |  |
| O=[N+]([O-])c1ccc2c(c1Oc1ccc(F)c(-n3cc(F)cn3)c1)CC[C@H]2OP(=O)(N1CC1)N1CC1 [Example 420] |  | 675 nM | < 10 nM |
| CN1Cc2ccc(Oc3c([N+](=O)[O-])ccc4c3CCC4OP(=O)(N3CC3)N3CC3)cc2C1=O (centres unmarked) [Example 24] | < 10 nM | 916 nM |  |
| O=[N+]([O-])c1ccc2c(c1Oc1cc(F)cc(-c3ncccn3)c1)CC[C@@H]2OP(=O)(N1CC1)N1CC1 [Example 356] |  | 1990 nM | < 10 nM |
| Cn1cc(-c2cccc(Oc3c([N+](=O)[O-])ccc4c3CCC4OP(=O)(N3CC3)N3CC3)c2)cn1 (centres unmarked) [Example 300] | < 10 nM | 1890 nM |  |
| O=C1OCCN1c1cccc(Oc2c([N+](=O)[O-])ccc3c2CCC3OP(=O)(N2CC2)N2CC2)c1 (centres unmarked) [Example 71] | < 10 nM | 31.9 nM |  |
| CC(OP(=O)(N1CC1)N1CC1)c1cc2cc(Oc3cccc(C(=O)N4CCC(F)(F)CC4)c3)c([N+](=O)[O-])cc2o1 (centres unmarked) [Example 548] | < 10 nM | 2140 nM |  |
| O=[N+]([O-])c1ccc2c(c1Oc1ccc(-c3ccc(O)cn3)cc1)CC[C@@H]2OP(=O)(N1CC1)N1CC1 [Example 290] |  | 274 nM | < 10 nM |
| O=[N+]([O-])c1ccc2c(c1Oc1ccc(-c3ccccc3)cc1)CCC2OP(=O)(N1CC1)N1CC1 (single isomer, unassigned) [Example 20] | < 10 nM | 1190 nM |  |
| O=[N+]([O-])c1cc2c(cc1Oc1ccc(-c3ccccc3)nc1)C(OP(=O)(N1CC1)N1CC1)CC2 (centres unmarked) [Example 518] | < 10 nM | 746 nM |  |
| O=C1c2cc(Oc3cc4c(cc3[N+](=O)[O-])OCCC4OP(=O)(N3CC3)N3CC3)ccc2CN1C1CC1 (single isomer, unassigned) [Example 204] | 10 to 50 nM | 1550 nM |  |
| O=C(c1cccc(Oc2c([N+](=O)[O-])ccc3c2CCC3OP(=O)(N2CC2)N2CC2)c1)N1CCCOCC1 (centres unmarked) [Example 105] |  | 1300 nM | 10 to 50 nM |
| CC(OP(=O)(N1CC1)N1CC1)c1ccc([N+](=O)[O-])c(Cn2cc(C(=O)N(C)C)ccc2=O)c1 (centres unmarked) [Example 6] |  | > 10000 nM | ≥ 100 nM |
| O=[N+]([O-])c1cc2c(cc1Oc1ccc(-c3ccccc3)nc1)C(OP(=O)(N1CC1)N1CC1)CC2 (centres unmarked) [Example 193] | < 10 nM | 880 nM |  |
| O=[N+]([O-])c1ccc2c(c1Oc1cccc(-c3cnc[nH]3)c1)CC[C@@H]2OP(=O)(N1CC1)N1CC1 [Example 362] |  | 1660 nM | < 10 nM |
| O=[N+]([O-])c1ccc2c(c1Oc1ccc(F)c(-c3ncccn3)c1)CC[C@@H]2OP(=O)(N1CC1)N1CC1 [Example 327] |  | 1710 nM | < 10 nM |
| Cn1c(=O)oc2ccc(Oc3c([N+](=O)[O-])ccc4c3CCC4OP(=O)(N3CC3)N3CC3)cc21 (single isomer, unassigned) [Example 64] |  | 722 nM | < 10 nM |
| Cn1cnc2ccc(Oc3cc4c(cc3[N+](=O)[O-])CCC4OP(=O)(N3CC3)N3CC3)cc2c1=O (centres unmarked) [Example 194] |  | 1290 nM | 10 to 50 nM |
| O=[N+]([O-])c1ccc2c(c1Oc1ccc(F)c(-n3cc(F)cn3)c1)CC[C@@H]2OP(=O)(N1CC1)N1CC1 [Example 421] |  | 1400 nM | < 10 nM |
| COc1ccc(Oc2c([N+](=O)[O-])ccc3c2CC[C@@H]3OP(=O)(N2CC2)N2CC2)cc1OCC1CC1 [Example 502] |  | 546 nM | < 10 nM |
| CN(C)C(=O)c1cc(Oc2c([N+](=O)[O-])ccc3c2CCC3OP(=O)(N2CC2)N2CC2)ccn1 (racemic) [Example 253] | < 10 nM | 697 nM |  |
| Cc1ncc(-c2cccc(Oc3c([N+](=O)[O-])ccc4c3CC[C@@H]4OP(=O)(N3CC3)N3CC3)c2)[nH]1 [Example 344] |  | 1510 nM | < 10 nM |

| SMILES | IC50 [1] | IC50 [2] | IC50 ([1]; Homo sapiens, NCI-H460, 72 h) |
| --- | --- | --- | --- |
| C[C@H](OP(=O)(N1CC1)N1CC1)c1cc2cc(Oc3cccc(C(=O)N4CCC(F)(F)CC4)c3)c([N+](=O)[O-])cc2o1 [Example 563] | < 10 nM | 2110 nM |  |
| C[C@@H]1CN1P(=O)(OC(c1ccc([N+](=O)[O-])c(Oc2cccc(C(=O)N(C)C)c2)c1)C(F)(F)F)N1C[C@H]1C (some centres unmarked) [Example 226] |  | > 10000 nM | 10 to 50 nM |
| C[C@H]1CN1P(=O)(OC(c1ccc([N+](=O)[O-])c(Oc2cccc(C(=O)N(C)C)c2)c1)C(F)(F)F)N1C[C@@H]1C (some centres unmarked) [Example 227] |  | 9760 nM | 10 to 50 nM |
| O=[N+]([O-])c1ccc2c(c1Oc1cccc(-n3ccc(F)n3)c1)CC[C@H]2OP(=O)(N1CC1)N1CC1 [Example 445] |  | 357 nM | < 10 nM |
| O=[N+]([O-])c1ccc2c(c1Oc1ccc(-c3ncccn3)cc1)CC[C@H]2OP(=O)(N1CC1)N1CC1 [Example 284] | < 10 nM | 1150 nM |  |
| O=C1CCCN1c1cccc(Oc2c([N+](=O)[O-])ccc3c2CCC3OP(=O)(N2CC2)N2CC2)c1 (centres unmarked) [Example 112] | < 10 nM | 243 nM |  |
| CC(OP(=O)(N1CC1)N1CC1)c1cc2cc(Oc3cccc(C(=O)N4CCC4)c3)c([N+](=O)[O-])cc2o1 (centres unmarked) [Example 549] | 10 to 50 nM | 5130 nM |  |
| CC(OP(=O)(N1C[C@@H]1C)N1C[C@@H]1C)c1ccc([N+](=O)[O-])c(Oc2ccc(C(=O)N(C)C)cc2)c1 (some centres unmarked) [Example 214] | < 10 nM | 913 nM |  |
| CC(OP(=O)(N1CC1)N1CC1)c1cc2cc(Oc3cccc(C(=O)N4CCOCC4)c3)c([N+](=O)[O-])cc2o1 (centres unmarked) [Example 544] | 10 to 50 nM | 3490 nM |  |
| O=[N+]([O-])c1ccc2c(c1Oc1ccc(OC3CCCC3)cc1)CCC2OP(=O)(N1CC1)N1CC1 (centres unmarked) [Example 490] | < 10 nM | 788 nM |  |
| Cc1nc2cc(Oc3c([N+](=O)[O-])ccc4c3CC[C@H]4OP(=O)(N3CC3)N3CC3)ccc2n1C [Example 392] |  | 785 nM | < 10 nM |
| CC(C)Oc1cc(Oc2c([N+](=O)[O-])ccc3c2CCC3OP(=O)(N2CC2)N2CC2)ccc1F (centres unmarked) [Example 487] | < 10 nM | 1010 nM |  |
| C[C@@H](OP(=O)(N1CC1)N1CC1)c1cc2cc(Oc3ccc4c(c3)OC(F)(F)O4)c([N+](=O)[O-])cc2o1 [Example 550] |  | 2510 nM | < 10 nM |
| O=[N+]([O-])c1ccc2c(c1Oc1ccc(F)c(OCC(F)(F)F)c1)CC[C@@H]2OP(=O)(N1CC1)N1CC1 [Example 494] |  | 160 nM | < 10 nM |
| O=[N+]([O-])c1ccc2c(c1Oc1ccc(-c3ccccc3)nc1)CCC2OP(=O)(N1CC1)N1CC1 (centres unmarked) [Example 51] | < 10 nM | 327 nM |  |
| CN(C)C(=O)c1cccc(Oc2cc3c(cc2[N+](=O)[O-])CCC3OP(=O)(N2CC2)N2CC2)c1 (centres unmarked) [Example 147] | < 10 nM | 311 nM |  |
| O=[N+]([O-])c1cc2c(cc1Oc1ccc(-c3ccccn3)cc1)C(OP(=O)(N1CC1)N1CC1)CC2 (single isomer, unassigned) [Example 188] |  | 2070 nM | < 10 nM |
| O=[N+]([O-])c1ccc2c(c1Oc1cccc(-c3ccnn3CC(F)F)c1)CC[C@@H]2OP(=O)(N1CC1)N1CC1 [Example 367] |  | 321 nM | < 10 nM |
| O=[N+]([O-])c1ccc2c(c1Oc1ccc(-c3ccccn3)c(F)c1)CCC2OP(=O)(N1CC1)N1CC1 (centres unmarked) [Example 287] | < 10 nM | 1010 nM |  |
| CSc1ccc(Oc2c([N+](=O)[O-])ccc3c2CC[C@@H]3OP(=O)(N2CC2)N2CC2)cc1-c1nc(C)ns1 [Example 376] |  | 1850 nM | < 10 nM |
| O=[N+]([O-])c1ccc2c(c1Oc1ccc(F)c(-c3ccccc3)c1)CC[C@H]2OP(=O)(N1CC1)N1CC1 [Example 313] |  | 1260 nM | < 10 nM |
| COc1ccc(Oc2c([N+](=O)[O-])ccc3c2CCC3OP(=O)(N2CC2)N2CC2)cc1OC1CC1 (centres unmarked) [Example 483] | < 10 nM | 735 nM |  |
| O=[N+]([O-])c1ccc2c(c1Oc1ccc(-c3ccc(Cl)cc3)cc1)CCC2OP(=O)(N1CC1)N1CC1 (centres unmarked) [Example 45] | 10 to 50 nM | 5550 nM |  |
| O=C(c1cccc(Oc2c([N+](=O)[O-])ccc3c2CCC3OP(=O)(N2CC2)N2CC2)c1)N1C[C@H]2CC[C@@H](C1)O2 (some centres unmarked) [Example 249] |  | 1340 nM | < 10 nM |
| O=[N+]([O-])c1ccc2c(c1Oc1ccc(F)c(-n3cncn3)c1)CC[C@@H]2OP(=O)(N1CC1)N1CC1 [Example 438] |  | 416 nM | < 10 nM |
| CS(=O)(=O)c1ccc(Oc2c([N+](=O)[O-])ccc3c2CCC3OP(=O)(N2CC2)N2CC2)cc1 (centres unmarked) [Example 504] | < 10 nM | 288 nM |  |
